Measurements: US20240254119A1 (THIRD HARMONIC BIO, INC., priority 2022, published 2024)

system: not listed separately; experiment: Kinetic solubility assay; format: physicochemical; conditions: kinetic solubility, 50 mM PB (pH 7.4), shaken 24 hours at RT
Outline: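 Test compounds from 10 mM DMSO stock were diluted in 50 mM phosphate buffer, pH 7.4, and shaken for 24 h at RT. After PTFE filtration and centrifugation, filtrate concentration was quantified by UPLC-UV/HPLC-UV against a standard curve.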

Compound | Solubility (μM)
Cc1ccc(-c2noc([C@H](C)O)n2)cc1NC(=O)c1cnc2ccccn12 [Compound I-271] | * (a solubility greater than 50 μM)
COC(=O)N1CC(c2nc(-c3ccc(C)c(NC(=O)c4cnn5ccc(Br)cc45)c3)no2)C1 [Compound I-280] | **** (a solubility less than or equal to 2 μM)
CNC(=O)N1CC(c2nc(-c3ccc(C)c(NC(=O)c4cnc5ccccn45)c3)no2)C1 [Compound I-282] | ** (a solubility greater than 10 μM and less than or equal to 50 μM)
Cc1ccc(-c2noc(C3CN(C(=O)CO)C3)n2)cc1NC(=O)c1cnc2ccccn12 [Compound I-287] | *** (a solubility greater than 2 μM and less than or equal to 10 μM)
Cc1ccc(-c2noc([C@H]3C[C@@H]3F)n2)cc1NC(=O)c1cnc2ccc(F)cn12 [Compound I-288] | **** (a solubility less than or equal to 2 μM)
Cc1ccc(-c2noc([C@H]3C[C@@H]3F)n2)cc1NC(=O)c1cnc2cc(N3CCC3)ccn12 [Compound I-295] | **** (a solubility less than or equal to 2 μM)

molecular target: T1, BCRP (BCRP-MDCKII monolayer) (Homo sapiens, UniProt Q9UNQ0); experiment: MDCKII-BCRP bidirectional transport assay; format: in vitro ADME; conditions: not given
T1 construct: host or cells: MDCKII (canine kidney) cells
T1 sequence (Q9UNQ0 1-655): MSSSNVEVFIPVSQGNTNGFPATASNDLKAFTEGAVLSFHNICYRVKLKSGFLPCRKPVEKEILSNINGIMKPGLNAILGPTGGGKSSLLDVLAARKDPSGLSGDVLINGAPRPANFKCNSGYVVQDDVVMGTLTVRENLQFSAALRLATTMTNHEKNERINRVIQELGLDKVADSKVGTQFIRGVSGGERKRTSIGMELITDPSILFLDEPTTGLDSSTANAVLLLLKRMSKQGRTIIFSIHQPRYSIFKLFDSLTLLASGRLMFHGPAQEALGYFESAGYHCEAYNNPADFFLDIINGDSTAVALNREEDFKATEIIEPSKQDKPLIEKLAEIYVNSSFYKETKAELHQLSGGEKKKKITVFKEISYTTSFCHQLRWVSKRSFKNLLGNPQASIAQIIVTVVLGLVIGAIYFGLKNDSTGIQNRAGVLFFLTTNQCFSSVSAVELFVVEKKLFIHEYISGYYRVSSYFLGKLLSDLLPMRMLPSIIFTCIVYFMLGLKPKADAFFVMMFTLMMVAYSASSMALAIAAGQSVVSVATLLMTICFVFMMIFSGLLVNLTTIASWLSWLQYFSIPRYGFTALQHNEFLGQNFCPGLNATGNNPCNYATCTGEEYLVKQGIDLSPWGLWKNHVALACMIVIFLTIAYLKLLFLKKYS
Outline: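 Bidirectional A→B and B→A transport across PreadyPort BCRP-MDCKII monolayers (days 12–15) was run in duplicate for 120 min at 37° C, 5% CO2 after a 15 min preincubation. Compound levels were measured by LC-MS/MS. Papp and recovery were calculated, with efflux ratio indicating transporter engagement.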

Compound | MDCK-BCRP: Efflux Ratio
Cc1ccc(-c2noc([C@H](C)O)n2)cc1NC(=O)c1cnc2ccccn12 [Compound I-271] | 29.6
COC(=O)N1CC(c2nc(-c3ccc(C)c(NC(=O)c4cnn5ccc(Br)cc45)c3)no2)C1 [Compound I-280] | 2.55
CNC(=O)N1CC(c2nc(-c3ccc(C)c(NC(=O)c4cnc5ccccn45)c3)no2)C1 [Compound I-282] | 28.1
Cc1ccc(-c2noc(C3CN(C(=O)CO)C3)n2)cc1NC(=O)c1cnc2ccccn12 [Compound I-287] | 0.65
Cc1ccc(-c2noc([C@H]3C[C@@H]3F)n2)cc1NC(=O)c1cnc2ccc(F)cn12 [Compound I-288] | 1.01
Cc1ccc(-c2noc([C@H]3C[C@@H]3F)n2)cc1NC(=O)c1cnc2cc(N3CCC3)ccn12 [Compound I-295] | 1.58

same assay, conditions: apical to basolateral

Compound | MDCK-BCRP: Papp A-B
Cc1ccc(-c2noc([C@H](C)O)n2)cc1NC(=O)c1cnc2ccccn12 [Compound I-271] | 1.25 10^−6 cm/s
COC(=O)N1CC(c2nc(-c3ccc(C)c(NC(=O)c4cnn5ccc(Br)cc45)c3)no2)C1 [Compound I-280] | 5.07 10^−6 cm/s
CNC(=O)N1CC(c2nc(-c3ccc(C)c(NC(=O)c4cnc5ccccn45)c3)no2)C1 [Compound I-282] | 0.55 10^−6 cm/s
Cc1ccc(-c2noc(C3CN(C(=O)CO)C3)n2)cc1NC(=O)c1cnc2ccccn12 [Compound I-287] | 11.8 10^−6 cm/s
Cc1ccc(-c2noc([C@H]3C[C@@H]3F)n2)cc1NC(=O)c1cnc2ccc(F)cn12 [Compound I-288] | 7.81 10^−6 cm/s
Cc1ccc(-c2noc([C@H]3C[C@@H]3F)n2)cc1NC(=O)c1cnc2cc(N3CCC3)ccn12 [Compound I-295] | 6.12 10^−6 cm/s

molecular target: T2, wtKIT (Homo sapiens, UniProt P10721); experiment: Caliper biochemical assay, wtKIT; conditions: Table 6, read-out: KIT Biochemical IC50 avg
T2 construct: 1888289AM in the reaction mixtures
T2 sequence (P10721 26-976): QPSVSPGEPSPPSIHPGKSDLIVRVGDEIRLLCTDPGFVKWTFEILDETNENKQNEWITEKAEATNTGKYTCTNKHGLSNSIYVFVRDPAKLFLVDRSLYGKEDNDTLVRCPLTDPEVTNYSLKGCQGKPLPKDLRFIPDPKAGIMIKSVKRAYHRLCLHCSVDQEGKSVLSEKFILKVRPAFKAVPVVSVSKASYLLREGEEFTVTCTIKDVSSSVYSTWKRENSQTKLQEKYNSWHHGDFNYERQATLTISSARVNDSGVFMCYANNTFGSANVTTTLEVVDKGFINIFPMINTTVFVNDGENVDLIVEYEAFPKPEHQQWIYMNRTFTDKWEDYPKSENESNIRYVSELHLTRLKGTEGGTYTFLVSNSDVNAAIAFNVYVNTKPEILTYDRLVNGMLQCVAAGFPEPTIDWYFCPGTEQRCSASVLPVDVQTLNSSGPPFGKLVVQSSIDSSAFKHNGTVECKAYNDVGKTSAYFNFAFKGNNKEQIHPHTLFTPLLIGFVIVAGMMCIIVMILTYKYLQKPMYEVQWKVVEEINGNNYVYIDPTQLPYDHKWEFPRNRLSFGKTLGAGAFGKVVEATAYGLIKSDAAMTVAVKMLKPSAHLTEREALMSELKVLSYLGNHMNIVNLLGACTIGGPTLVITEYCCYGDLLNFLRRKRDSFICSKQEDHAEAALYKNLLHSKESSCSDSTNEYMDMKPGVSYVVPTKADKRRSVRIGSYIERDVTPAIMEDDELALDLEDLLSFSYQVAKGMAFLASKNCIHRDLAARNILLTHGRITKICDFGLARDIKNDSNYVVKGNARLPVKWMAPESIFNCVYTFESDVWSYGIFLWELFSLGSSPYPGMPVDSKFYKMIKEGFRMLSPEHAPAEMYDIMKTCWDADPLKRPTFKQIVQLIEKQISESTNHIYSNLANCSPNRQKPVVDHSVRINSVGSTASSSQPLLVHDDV
Outline: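 Enzyme (5.0 nM wtKIT), 1 μM FAM-labelled peptide, 400 μM ATP and 10 mM MnCl2 in HEPES pH 7.5 with 1% DMSO, incubated 3 h at 25° C. EDTA quench; substrate and phosphoproduct separated by microfluidic electrophoresis and quantified by fluorescence.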

Compound | IC50 [nM]
Cc1ccc(-c2noc([C@H](C)O)n2)cc1NC(=O)c1cnc2ccccn12 [Compound I-271] | ≤ 50
COC(=O)N1CC(c2nc(-c3ccc(C)c(NC(=O)c4cnn5ccc(Br)cc45)c3)no2)C1 [Compound I-280] | ≤ 50
CNC(=O)N1CC(c2nc(-c3ccc(C)c(NC(=O)c4cnc5ccccn45)c3)no2)C1 [Compound I-282] | ≤ 50
Cc1ccc(-c2noc(C3CN(C(=O)CO)C3)n2)cc1NC(=O)c1cnc2ccccn12 [Compound I-287] | 50 to 500
Cc1ccc(-c2noc([C@H]3C[C@@H]3F)n2)cc1NC(=O)c1cnc2ccc(F)cn12 [Compound I-288] | ≤ 50
Cc1ccc(-c2noc([C@H]3C[C@@H]3F)n2)cc1NC(=O)c1cnc2cc(N3CCC3)ccn12 [Compound I-295] | ≤ 50

molecular target: T3, PDGFRα (Homo sapiens, UniProt P16234); experiment: Caliper biochemical assay, PDGFRα; conditions: Table 6
T3 construct: purchased Millipore 14-467 (lot 26321_ACTI)
T3 sequence (P16234 24-1089): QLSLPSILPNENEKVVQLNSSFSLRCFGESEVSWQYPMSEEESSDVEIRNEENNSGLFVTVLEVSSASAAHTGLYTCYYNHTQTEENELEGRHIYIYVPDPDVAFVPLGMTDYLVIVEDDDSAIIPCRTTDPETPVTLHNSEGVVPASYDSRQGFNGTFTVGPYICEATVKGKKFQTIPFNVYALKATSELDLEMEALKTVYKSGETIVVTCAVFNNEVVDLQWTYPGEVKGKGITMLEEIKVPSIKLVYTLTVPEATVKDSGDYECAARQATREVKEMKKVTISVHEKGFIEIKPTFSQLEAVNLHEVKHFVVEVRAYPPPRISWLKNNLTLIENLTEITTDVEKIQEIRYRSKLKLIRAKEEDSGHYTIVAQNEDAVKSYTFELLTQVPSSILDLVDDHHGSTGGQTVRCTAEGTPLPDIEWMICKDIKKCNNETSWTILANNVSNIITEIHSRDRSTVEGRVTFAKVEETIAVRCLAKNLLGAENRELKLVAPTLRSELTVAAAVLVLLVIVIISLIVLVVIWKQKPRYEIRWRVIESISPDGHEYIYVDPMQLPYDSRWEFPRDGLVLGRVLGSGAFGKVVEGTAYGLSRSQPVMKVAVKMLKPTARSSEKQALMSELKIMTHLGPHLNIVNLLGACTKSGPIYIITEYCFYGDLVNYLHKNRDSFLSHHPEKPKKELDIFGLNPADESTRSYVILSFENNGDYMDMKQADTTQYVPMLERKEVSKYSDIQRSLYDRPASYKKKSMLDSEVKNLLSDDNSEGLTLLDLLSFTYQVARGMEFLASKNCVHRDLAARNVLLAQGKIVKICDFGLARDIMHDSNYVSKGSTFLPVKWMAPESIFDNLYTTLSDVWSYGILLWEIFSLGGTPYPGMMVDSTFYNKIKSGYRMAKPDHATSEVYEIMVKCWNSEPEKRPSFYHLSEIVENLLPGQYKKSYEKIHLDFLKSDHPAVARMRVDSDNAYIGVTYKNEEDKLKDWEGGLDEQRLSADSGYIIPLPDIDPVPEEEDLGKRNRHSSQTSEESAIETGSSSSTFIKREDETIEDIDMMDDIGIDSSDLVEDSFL
Outline: (§1)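 Kinase, FAM-labelled peptide substrate, ATP and Mn^2+ incubated with compound for 3 h at 25° C, then quenched with EDTA buffer. Substrate and phosphorylated product separated by microfluidic electrophoresis and quantified by fluorescence intensity; no-enzyme wells define 100% inhibition.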

Compound | IC50 [nM]
Cc1ccc(-c2noc([C@H](C)O)n2)cc1NC(=O)c1cnc2ccccn12 [Compound I-271] | 500 to 5000
COC(=O)N1CC(c2nc(-c3ccc(C)c(NC(=O)c4cnn5ccc(Br)cc45)c3)no2)C1 [Compound I-280] | 5000 to 30000
CNC(=O)N1CC(c2nc(-c3ccc(C)c(NC(=O)c4cnc5ccccn45)c3)no2)C1 [Compound I-282] | 5000 to 30000
Cc1ccc(-c2noc(C3CN(C(=O)CO)C3)n2)cc1NC(=O)c1cnc2ccccn12 [Compound I-287] | 5000 to 30000
Cc1ccc(-c2noc([C@H]3C[C@@H]3F)n2)cc1NC(=O)c1cnc2ccc(F)cn12 [Compound I-288] | 500 to 5000
Cc1ccc(-c2noc([C@H]3C[C@@H]3F)n2)cc1NC(=O)c1cnc2cc(N3CCC3)ccn12 [Compound I-295] | ≤ 50

molecular target: T4, CSF-1R (Homo sapiens, UniProt P07333); experiment: Caliper biochemical assay, CSF-1R; conditions: Table 6
T4 construct: purchased Invitrogen PV3249 (lot 662393N)
T4 sequence (P07333 20-972): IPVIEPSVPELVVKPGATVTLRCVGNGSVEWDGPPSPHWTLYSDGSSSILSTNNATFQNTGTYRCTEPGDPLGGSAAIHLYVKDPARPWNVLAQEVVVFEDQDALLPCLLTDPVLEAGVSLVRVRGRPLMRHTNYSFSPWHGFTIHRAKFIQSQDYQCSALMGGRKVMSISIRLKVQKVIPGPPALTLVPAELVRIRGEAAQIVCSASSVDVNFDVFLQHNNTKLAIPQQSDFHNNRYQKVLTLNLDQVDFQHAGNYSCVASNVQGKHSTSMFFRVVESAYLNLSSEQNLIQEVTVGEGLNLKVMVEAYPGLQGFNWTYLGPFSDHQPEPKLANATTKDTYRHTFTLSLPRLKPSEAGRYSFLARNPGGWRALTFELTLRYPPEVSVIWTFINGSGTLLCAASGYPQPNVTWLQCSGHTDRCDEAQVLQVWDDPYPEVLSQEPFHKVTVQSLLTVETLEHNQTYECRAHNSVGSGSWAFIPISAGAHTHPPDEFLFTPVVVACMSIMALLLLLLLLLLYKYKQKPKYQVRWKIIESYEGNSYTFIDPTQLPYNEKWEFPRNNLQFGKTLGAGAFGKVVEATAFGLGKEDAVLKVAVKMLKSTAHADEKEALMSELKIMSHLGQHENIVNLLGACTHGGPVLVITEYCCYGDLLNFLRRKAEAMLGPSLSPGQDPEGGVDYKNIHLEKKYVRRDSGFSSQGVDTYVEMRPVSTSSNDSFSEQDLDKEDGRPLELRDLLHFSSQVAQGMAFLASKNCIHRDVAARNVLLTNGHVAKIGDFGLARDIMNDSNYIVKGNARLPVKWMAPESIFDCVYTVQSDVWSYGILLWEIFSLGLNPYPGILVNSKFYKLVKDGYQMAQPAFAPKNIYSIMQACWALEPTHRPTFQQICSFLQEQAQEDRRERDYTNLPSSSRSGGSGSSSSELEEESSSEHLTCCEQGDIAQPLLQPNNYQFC
Outline: as §1

Compound | IC50 [nM]
Cc1ccc(-c2noc([C@H](C)O)n2)cc1NC(=O)c1cnc2ccccn12 [Compound I-271] | 50 to 500
COC(=O)N1CC(c2nc(-c3ccc(C)c(NC(=O)c4cnn5ccc(Br)cc45)c3)no2)C1 [Compound I-280] | ≤ 50
CNC(=O)N1CC(c2nc(-c3ccc(C)c(NC(=O)c4cnc5ccccn45)c3)no2)C1 [Compound I-282] | 5000 to 30000
Cc1ccc(-c2noc(C3CN(C(=O)CO)C3)n2)cc1NC(=O)c1cnc2ccccn12 [Compound I-287] | 5000 to 30000
Cc1ccc(-c2noc([C@H]3C[C@@H]3F)n2)cc1NC(=O)c1cnc2ccc(F)cn12 [Compound I-288] | 50 to 500
Cc1ccc(-c2noc([C@H]3C[C@@H]3F)n2)cc1NC(=O)c1cnc2cc(N3CCC3)ccn12 [Compound I-295] | ≤ 50
